Where two headings read alike, the source gives them in different places.

For orientation: EC50 means the concentration at which the effect is half-maximal.

Data set [1] has as its system homologous recombination in BxPC3 cells. On the set-up: method as in PMID 30660828. The conditions noted are these: earlier triazole; cited from earlier work.
The target in another data set is T1, BRC4–RAD51 interaction (Homo sapiens, UniProt Q06609).
T1 construct: purchased Creative Biomart (RAD51); Life Technologies (BRC4 peptide)
T1 sequence (Q06609 1-339): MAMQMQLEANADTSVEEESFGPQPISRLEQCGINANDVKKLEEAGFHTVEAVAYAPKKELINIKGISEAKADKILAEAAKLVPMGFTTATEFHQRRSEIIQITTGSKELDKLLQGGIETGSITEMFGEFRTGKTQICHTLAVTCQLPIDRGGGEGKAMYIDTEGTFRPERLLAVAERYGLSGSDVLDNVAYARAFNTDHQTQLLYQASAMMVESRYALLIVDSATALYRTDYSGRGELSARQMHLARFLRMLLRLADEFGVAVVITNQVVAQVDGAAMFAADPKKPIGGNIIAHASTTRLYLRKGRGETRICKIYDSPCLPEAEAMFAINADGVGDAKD
The data set is described as follows: Competitive biochemical ELISA assay (biotinylated BRC4 peptide vs RAD51). It is filed as binding. On the procedure: To investigate the mechanism of action of the new dihydroquinolone pyrazoline derivatives, different biological assays were performed. As a primary screening, the ability of compounds 5d–57d to inhibit RAD51-BRCA2 interaction was investigated with a competitive biochemical ELISA assay against the parent compound 4d (Table 1). This assay is effective in evaluating the ability of new molecules to compete with BRC4 to bind to RAD51.[30] […] 18d–21d, 23d, 25d, 30d, and 31d were active at micromolar range, all very similar to the initial hit. […] The replacement of the aromatic ring A in combination with the substitution of the pyrazoline nitrogen with either propionyl or acetyl chain yielded compounds 33d–51d. […] As expected for PPI disruptors, the SARs of the new series of dihydroquinolone pyrazoline were rather complex to rationalize, with many cliffs and spikes that were difficult to understand. […] Accordingly, 4d, 12d, 18d, 20d–23d, 30d, 31d, 33d–36d, 39d, 45d, and 49d were submitted to cell-based study (Table 2).
Competitive ELISA screening assay using biotinylated BRC4 peptide to disrupt the BRC4–RAD51 interaction was performed by modifying the method described by Rajendra et al.[33] BRC4-biotinylated peptide (N-term biotin-[…] from Life Technologies) was used to coat 384-well plates (Nunc). After washing with PBS containing 0.05% Tween-20 (PBST) and blocking with the solution BSA 1% /PBST, overnight hybridization with human RAD51 protein (NP_002866 Creative Biomart, NY) was performed. Test compounds were added in dose response from 0.01 to 100 μM in triplicate with constant DMSO 1%. Antibody raised against RAD51 (Millipore) and HRP-secondary antibody staining to develop the 3,3′,5,5′-tetramethylbenzidine signal (Sigma) quenched with 1 M HCl was used as the assay readout. Colorimetric measure was read on a Victor5 (PerkinElmer) plate reader. BRC4 and Rad51 were included in the assay as positive control. Results were analyzed by using GraphPad software.
(In general: In an ELISA, binding on a coated surface is turned into a signal by an enzyme label.)

A short description of data set [2]: Solubility (as observed in cell culture media / stated). It is filed as physicochemical. The conditions noted are these: cell culture media.
Data set [3] has as its system homologous recombination in BxPC3 cells. Briefly: Homologous recombination assay (two-plasmid recombination, real-time PCR). Particulars: BxPC3; one or two doses in the range of the ELISA EC50; NDD = not dose-dependent. It is filed as cell-based, human. The source says: Our working hypothesis is that compounds disrupting RAD51-BRCA2 interaction should affect HR repair and increase the efficacy of PARPi in treating breast, ovarian, and pancreatic cancer. For its clinical relevance, pancreatic adenocarcinoma was selected as our final model for cell-based experiments, and BxPC3 cells were selected for a straightforward comparison with the previously reported triazole derivatives.[30],[31] BxPC3 is derived from a human adenocarcinoma that expresses fully functional BRCA2.[38] As shown in Table 2 and according to the rationale of our hypothesis, our preliminary screening consisted of verifying the efficacy of compounds in inhibiting cell HR and/or in increasing the antiproliferative effect of olaparib. […] HR activity was assessed by evaluating the recombination rate between two transfected plasmids, using a commercially available assay. […] As for the emissucinic acid-containing compounds (4d, 12d, 18d, 20d–23d, 30d, 31d), one of the reasons for their lower potency in cells might be the general poor permeability, likely related to the ionizable acid moiety. […] We then characterized 35d in additional biophysical and cell-based experiments.
Homologous recombination (HR) was assessed by using a commercially available assay (Norgen). This assay is based on cell transfection with two plasmids that, upon cell entry, recombine. The efficiency of HR can be assessed by real-time PCR, using primer mixtures included in the assay kit. Different primer mixtures allow one to discriminate between the original plasmid backbones and their recombination product.
BxPC3 cells (2 × 10^5 per well) were seeded in a 24-well plate and allowed to adhere overnight. Co-transfection with the two plasmids was performed in Lipofectamine 2000 (Invitrogen) according to the manufacturer’s instructions. During transfection (5 h), cells were exposed to different doses of RAD51-BRCA2 disruptors, dissolved in RPMI in the presence of 0.6% DMSO. After washing with PBS, cells were harvested, and DNA was isolated using Illustra Tissue and Cell Genomic Prep Mini Spin kit (GE Healthcare). Sample concentration was measured using an ONDA Nano Genius photometer. The efficiency of HR was assessed by real-time PCR, using 25 ng of template, the primer mixtures included in the assay kit and following the protocol indicated by the manufacturer. Data analysis was based on the ΔΔCt method: [recombination product/backbone plasmids]^treated versus [recombination product/backbone plasmids]^control.
In general terms: Real-time PCR tracks product formation cycle by cycle.

Another data set has as its system Capan-1 cells. The data set is described as follows: Immunofluorescence of nuclear γ-H2AX foci (DNA damage). It is filed as cell-based, human. Particulars: Capan-1, 48 h, 10 μM olaparib alone. Here is the method: To evaluate DNA damage through γH2AX nuclear foci, BXPC3 and Capan1 cells were seeded on glass coverslips in 6-well tissue culture plate (2 × 10^5 cells/well) and allowed to adhere overnight. After 48 h treatment with olaparib (10 μM) or 35d (20 μM) given alone or in combination, cultures growing on coverslips were fixed and treated as described above. For this experiment, the used antibodies were a rabbit polyclonal anti-γH2AX (Abcam, 1:1000 in 5% BSA/PBS) and a secondary anti-rabbit rhodamine-labeled (Novus Biologicals, 1:1000 in 1% BSA/PBS). For both experiments, images were acquired using a Nikon fluorescent microscope equipped with filters for FITC, TRITC, and DAPI. The percentage of cells bearing nuclear foci was estimated by two independent observers, by analyzing 100–250 cells for each treatment sample.

Where [4] appears, read: Table 2, compounds selected for cell-based study, read-out: EC50 ELISA.
The mark [5] stands for this setting: competition with BRC4 for RAD51, triplicate, ± standard deviation, NA = not active, racemic mixtures unless enantiomer named, read-out: EC50 (μM) on ELISA assay.

Turning to `O=C(CSc1nnc(Cn2c(=O)sc3ccccc32)n1CCCc1ccccc1)NC1CCCCC1` [Compound 3], the HR inhibition in data set [1] is reported as not above 40%.

As for `CCn1ncc2cc(-c3ccc(C4CC(c5c(-c6ccccc6)c6cc(Cl)ccc6[nH]c5=O)=NN4C(=O)CCC(=O)O)cc3)ccc21` (stereo not drawn) [Compound 30d, 4-(3-(6-Chloro-2-oxo-4-phenyl-1,2-dihydroquinolin-3-yl)-5-(4-(1-ethyl-1H-indazol-5-yl)phenyl)-4,5-dihydro-1H-pyrazol-1-yl)-4-oxobutanoic Acid], the EC50 at BRC4–RAD51 interaction (setting [4]) and on BRC4–RAD51 interaction (setting [5]) was 15 ± 3 µM each time. Besides, in data set [2], the “solubility in cell culture media” value is recorded as “poor solubility”.

Turning to `CCC(=O)N1N=C(c2c(-c3ccccc3)c3cc(Cl)ccc3[nH]c2=O)CC1c1ccc(Br)cc1` (stereo not drawn) [Compound 34d, 3-(5-(4-Bromophenyl)-1-propionyl-4,5-dihydro-1H-pyrazol-3-yl)-6-chloro-4-phenylquinolin-2(1H)-one], the EC50 at BRC4–RAD51 interaction (setting [4]) and on BRC4–RAD51 interaction (setting [5]) was 19 ± 1 µM each time. Besides, the “solubility in cell culture media” value in data set [2] was “poor solubility”. Also, in data set [3], the “HR inhibition (in words)” value is “HR inhibition = not present”.

As to `O=C(c1cc(Cc2n[nH]c(=O)c3ccccc23)ccc1F)N1CCN(C(=O)C2CC2)CC1` [olaparib], in the data set on Capan-1 cells, the “γ-H2AX labeling in nuclei” value is “increased nuclear labeling”.
